The record followed here is patent publication US6960608B2, “Fused indazoles and indoles and their use for the treatment of glaucoma” (Alcon, Inc., priority 2001, dated 2005).

Data set [1] deals with T1, 5-HT2 receptor (Rattus norvegicus, UniProt P14842).
T1 construct: A7r5 rat vascular smooth muscle cells; endogenous in cells; host or cells: A7r5 rat vascular smooth muscle cells
Briefly: 5-HT2 functional assay: phosphoinositide (PI) turnover assay. Format: cell-based. The conditions noted are these: for Emax: A7R5, read-out: Efficacy (Emax, %). The protocol: The relative agonist activity of serotonergic compounds at the 5-HT2 receptor can be determined in vitro using the ability of the compounds to stimulate the production of [^3H]inositol phosphates in [^3H]myo-inositol-labeled A7r5 rat vascular smooth muscle cells by their ability to activate the enzyme phospholipase C. These cells are grown in culture plates, maintained in a humidified atmosphere of 5% CO2 and 95% air and fed semi-weekly with Dulbecco's modified Eagle medium (DMEM) containing 4.5 g/L glucose and supplemented with 2 mM glutamine, 10 μg/ml gentamicin, and 10% fetal bovine serum. For the purpose of conducting the phosphoinositide (PI) turnover experiments, the A7r5 cells are cultured in 24-well plates as previously [J. Pharmacol. Expt. Ther. 286, 411 (1998)]. Confluent cells are exposed for 24-30 hrs to 1.5 μCi [^3H]-myo-inositol (18.3 Ci/mmol) in 0.5 mL of serum-free medium. Cells are then rinsed once with DMEM/F-12 containing 10 mM LiCl prior to incubation with the test agent (or solvent as the control) in 1.0 mL of the same medium for 1 hr at 37° C., after which the medium is aspirated and 1 mL of cold 0.1 M formic acid added to stop the reaction. The chromatographic separation of [^3H]-inositol phosphates ([^3H]-IPs) on an AG-1-X8 column is performed as previously described [J. Pharmacol. Expt. Ther. 286, 411 (1998)] with sequential washes with H2O and 50 mM ammonium formate, followed by elution of the total [^3H]-IPs fraction with 1.2 M ammonium formate containing 0.1 M formic acid. The eluate (4 mL) is collected, mixed with 15 ml scintillation fluid, and the total [^3H]-IPs determined by scintillation counting on a beta-counter. Concentration-response data are analyzed by the sigmoidal fit function of the Origin Scientific Graphics software (Microcal Software, Northampton, MA) to determine agonist potency (EC50 value) and efficacy (Emax).

Data set [2] deals with lasered (hypertensive) eyes of conscious cynomolgus monkeys. Briefly: Acute IOP response in lasered (hypertensive) eyes of conscious cynomolgus monkeys. The data set is classed as in vivo, cynomolgus monkey. The conditions noted are these: 300 μg topical, lasered eye. The protocol: Intraocular pressure (IOP) was determined with an Alcon Pneumatonometer after light corneal anesthesia with 0.1% proparacaine. Eyes were washed with saline after each measurement. After a baseline IOP measurement, test compound was instilled in one 30 μL aliquot to the right eyes only of nine cynomolgus monkeys. Vehicle was instilled in the right eyes of six additional animals. Subsequent IOP measurements were taken at 1, 3, and 6 hours. A compound is considered efficacious in this model of ocular hypertension if there is a decrease in the baseline IOP of the lasered eye (O.D.) of at least 20% following topical administration.

T1 sequence (P14842 whole entry): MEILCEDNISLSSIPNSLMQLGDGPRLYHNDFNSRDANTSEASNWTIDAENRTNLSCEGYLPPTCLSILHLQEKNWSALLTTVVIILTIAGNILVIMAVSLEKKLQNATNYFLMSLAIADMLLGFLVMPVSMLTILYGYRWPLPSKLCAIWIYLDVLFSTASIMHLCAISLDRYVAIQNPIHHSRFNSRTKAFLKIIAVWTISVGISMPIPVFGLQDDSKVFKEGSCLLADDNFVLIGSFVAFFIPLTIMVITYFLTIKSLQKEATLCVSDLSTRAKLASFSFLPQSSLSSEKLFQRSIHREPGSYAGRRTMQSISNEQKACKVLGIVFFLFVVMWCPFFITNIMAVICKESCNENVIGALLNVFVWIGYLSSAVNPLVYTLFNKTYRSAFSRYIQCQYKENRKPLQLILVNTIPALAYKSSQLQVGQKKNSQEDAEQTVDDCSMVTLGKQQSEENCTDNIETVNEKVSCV

What is called EC50 is the concentration needed to bring the measured effect to its halfway point. Read a high EC50 as lower potency in that assay. A word on the Emax: it is the maximal effect, on the per cent scale that the assay sets. One may read the melting point as the temperature of the solid-liquid transition. With `CC(N)Cn1nc2c3c(cc(O)cc31)CCC2.Cl.Cl` (stereo not drawn) [Example 1, 2-(2-Aminopropyl)-2,6,7,8-tetrahydro-benzo[cd]indazol-4-ol dihydrochloride], the melting point fell in the range of 286 to 288 °C. In addition, in data set [1], a half-maximal effect (EC50) was put at 0.374 µM and the Emax is 85%. In addition, the “Percent Change in IOP ± SEM” value in data set [2] (1 hour after dose) was −5.9 ± 2.69%. Moreover, the “Percent Change in IOP ± SEM” value in data set [2] (3 hours after dose) is −20.0 ± 3.54%. In data set [2] (6 hours after dose), the “Percent Change in IOP ± SEM” value is given as −21.6 ± 4.91%.

The compound `CC(N)Cn1nc2c3c(ccc(O)c31)CCC2.Cl.Cl` (stereo not drawn) [Example 2, 2-(2-Aminopropyl)-2,6,7,8-tetrahydro-benzo[cd]indazol-3-ol dihydrochloride] registered a melting point of 284 to 286 °C. Further, in data set [1], a half-maximal response (EC50) required 1.44 µM and the maximal response (Emax) was found to be 55%.
